Measurements as given in ChEMBL document CHEMBL3885881, “DrugMatrix”.

Organism: Rattus norvegicus
Assay: DrugMatrix - Regimen: Daily Repeat
Format: toxicity, organism-based, Sprague-Dawley
Parameters: regimen Daily Repeat, gender Male, age 6-8 weeks
Conditions: in vivo, po, route oral GAVAGE, vehicle 100 % WATER; for ABSOLUTE BASOPHIL / ABSOLUTE EOSINOPHIL / ABSOLUTE LYMPHOCYTE / ABSOLUTE MONOCYTE / ABSOLUTE SEGMENTED NEUTROPHIL / BASOPHIL / EOSINOPHIL / ERYTHROCYTE COUNT / HEMATOCRIT / HEMOGLOBIN / LEUKOCYTE COUNT / LYMPHOCYTE / MEAN CORPUSCULAR HEMOGLOBIN / MEAN CORPUSCULAR HEMOGLOBIN CONCENTRATION / MEAN CORPUSCULAR VOLUME / MONOCYTE / NEUTROPHIL / NUCLEATED RED BLOOD CELLS / PLATELET COUNT: tissue Blood; for ALANINE AMINOTRANSFERASE / ALBUMIN / ALKALINE PHOSPHATASE / ASPARTATE AMINOTRANSFERASE / BLOOD UREA NITROGEN / CARBON DIOXIDE / CHLORIDE / CHOLESTEROL / CREATINE PHOSPHOKINASE / CREATININE / GLUCOSE / LACTATE DEHYDROGENASE / LIPASE / PHOSPHORUS / POTASSIUM / SODIUM / TOTAL BILIRUBIN / TOTAL PROTEIN / URIC ACID: tissue Plasma
[1] = 4.5 mg/kg, 120 h, dose level Low, time 5 day
[2] = 45 mg/kg, 72 h, dose level High, time 3 day
[3] = 45 mg/kg, 120 h, dose level High, time 5 day

## NN [HYDRAZINE]
[1]
  ABSOLUTE BASOPHIL: 0 CELLS/uL
  ABSOLUTE EOSINOPHIL: 61.33 CELLS/uL
  ABSOLUTE LYMPHOCYTE: 9152.67 CELLS/uL
  ABSOLUTE MONOCYTE: 216 CELLS/uL
  ABSOLUTE SEGMENTED NEUTROPHIL: 1236.67 CELLS/uL
  BASOPHIL: 0%
  EOSINOPHIL: 0.67%
  ERYTHROCYTE COUNT: 5.22 x10E6/uL
  HEMATOCRIT: 32.97%
  HEMOGLOBIN: 13.03 G/DL
  LEUKOCYTE COUNT: 10.67 x10E3/uL
  LYMPHOCYTE: 85.33%
  MEAN CORPUSCULAR HEMOGLOBIN: 25 pg
  MEAN CORPUSCULAR HEMOGLOBIN CONCENTRATION: 39.57 G/DL
  MEAN CORPUSCULAR VOLUME: 63.23 fL
  MONOCYTE: 2%
  NEUTROPHIL: 12%
  NUCLEATED RED BLOOD CELLS: 0 /100WBC
  PLATELET COUNT: 1367.67 x10E3/uL
  ALANINE AMINOTRANSFERASE: 34.33 u/L
  ALBUMIN: 4.27 G/DL
  ALKALINE PHOSPHATASE: 357 u/L
  ASPARTATE AMINOTRANSFERASE: 88.33 u/L
  BLOOD UREA NITROGEN: 18.33 mg/dL
  CARBON DIOXIDE: 28 mmol/L
  CHLORIDE: 100 MEQ/L
  CHOLESTEROL: 80 mg/dL
  CREATINE PHOSPHOKINASE: 469 u/L
  CREATININE: 0.17 mg/dL
  GLUCOSE: 135.67 mg/dL
  LACTATE DEHYDROGENASE: 538.33 u/L
  LIPASE: 11 u/L
  PHOSPHORUS: 11.77 mg/dL
  POTASSIUM: 5.73 MEQ/L
  SODIUM: 142.13 MEQ/L
  TOTAL BILIRUBIN: 0.13 mg/dL
  TOTAL PROTEIN: 5.87 G/DL
  URIC ACID: 1.37 mg/dL
[2]
  ABSOLUTE BASOPHIL: 0 CELLS/uL
  ABSOLUTE EOSINOPHIL: 101.33 CELLS/uL
  ABSOLUTE LYMPHOCYTE: 9888 CELLS/uL
  ABSOLUTE MONOCYTE: 143.33 CELLS/uL
  ABSOLUTE SEGMENTED NEUTROPHIL: 634 CELLS/uL
  BASOPHIL: 0%
  EOSINOPHIL: 1%
  ERYTHROCYTE COUNT: 5.85 x10E6/uL
  HEMATOCRIT: 35.23%
  HEMOGLOBIN: 13.87 G/DL
  LEUKOCYTE COUNT: 10.77 x10E3/uL
  LYMPHOCYTE: 91.67%
  MEAN CORPUSCULAR HEMOGLOBIN: 23.77 pg
  MEAN CORPUSCULAR HEMOGLOBIN CONCENTRATION: 39.43 G/DL
  MEAN CORPUSCULAR VOLUME: 60.27 fL
  MONOCYTE: 1.33%
  NEUTROPHIL: 6%
  NUCLEATED RED BLOOD CELLS: 0.33 /100WBC
  PLATELET COUNT: 1202 x10E3/uL
  ALANINE AMINOTRANSFERASE: 14 u/L
  ALBUMIN: 4.07 G/DL
  ALKALINE PHOSPHATASE: 403.33 u/L
  ASPARTATE AMINOTRANSFERASE: 77.67 u/L
  BLOOD UREA NITROGEN: 17.67 mg/dL
  CARBON DIOXIDE: 31.33 mmol/L
  CHLORIDE: 98.33 MEQ/L
  CHOLESTEROL: 44 mg/dL
  CREATINE PHOSPHOKINASE: 676.33 u/L
  CREATININE: 0.11 mg/dL
  GLUCOSE: 133.33 mg/dL
  LACTATE DEHYDROGENASE: 533 u/L
  LIPASE: 11 u/L
  PHOSPHORUS: 11.23 mg/dL
  POTASSIUM: 6.63 MEQ/L
  SODIUM: 138.67 MEQ/L
  TOTAL BILIRUBIN: 0.13 mg/dL
  TOTAL PROTEIN: 5.5 G/DL
  URIC ACID: 1.6 mg/dL
[3]
  ABSOLUTE BASOPHIL: 0 CELLS/uL
  ABSOLUTE EOSINOPHIL: 63.33 CELLS/uL
  ABSOLUTE LYMPHOCYTE: 8413.33 CELLS/uL
  ABSOLUTE MONOCYTE: 93 CELLS/uL
  ABSOLUTE SEGMENTED NEUTROPHIL: 730.33 CELLS/uL
  BASOPHIL: 0%
  EOSINOPHIL: 0.67%
  ERYTHROCYTE COUNT: 5.35 x10E6/uL
  HEMATOCRIT: 31.4%
  HEMOGLOBIN: 12.23 G/DL
  LEUKOCYTE COUNT: 9.3 x10E3/uL
  LYMPHOCYTE: 90.67%
  MEAN CORPUSCULAR HEMOGLOBIN: 22.9 pg
  MEAN CORPUSCULAR HEMOGLOBIN CONCENTRATION: 38.97 G/DL
  MEAN CORPUSCULAR VOLUME: 58.77 fL
  MONOCYTE: 1%
  NEUTROPHIL: 7.67%
  NUCLEATED RED BLOOD CELLS: 0 /100WBC
  PLATELET COUNT: 1463.33 x10E3/uL
  ALANINE AMINOTRANSFERASE: 14.67 u/L
  ALBUMIN: 4 G/DL
  ALKALINE PHOSPHATASE: 346 u/L
  ASPARTATE AMINOTRANSFERASE: 75.67 u/L
  BLOOD UREA NITROGEN: 18.67 mg/dL
  CARBON DIOXIDE: 25.33 mmol/L
  CHLORIDE: 99 MEQ/L
  CHOLESTEROL: 50.67 mg/dL
  CREATINE PHOSPHOKINASE: 391.33 u/L
  CREATININE: 0.11 mg/dL
  GLUCOSE: 153.33 mg/dL
  LACTATE DEHYDROGENASE: 326 u/L
  LIPASE: 11.33 u/L
  PHOSPHORUS: 11.23 mg/dL
  POTASSIUM: 6.42 MEQ/L
  SODIUM: 139.93 MEQ/L
  TOTAL BILIRUBIN: 0.2 mg/dL
  TOTAL PROTEIN: 5.37 G/DL
  URIC ACID: 1.4 mg/dL
